#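 Where inhibition never reached the appropriate level, the endpoint shown equals the highest concentration tested. Otherwise, values were interpolated linearly from a five-concentration, 48-hour dose response in 96-well plates. The concentration for 50% growth inhibition is given as GI50. TGI: concentration producing complete growth inhibition.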
# Columns and labels:
# Assay in all cases: NCI-60 cell line screen, 48 h
# [1] = test system: CCRF-CEM leukemia
# [2] = test system: COLO 205 colon
# [3] = test system: KM12 colon
# [4] = test system: LOX IMVI melanoma
# [5] = test system: MDA-MB-435
# [6] = test system: NCI-H23 lung
# [7] = test system: NCI-H460 lung
# [8] = test system: OVCAR-8 ovarian
# [9] = test system: SNB-75 CNS
# [10] = test system: UACC-62 melanoma
# [11] = test system: OVCAR-3 ovarian
SMILES,TGI [1],TGI [2],TGI [3],TGI [4],TGI [5],TGI [6],TGI [7],TGI [8],TGI [9],TGI [10],GI50 [6],GI50 [11],TGI [11],GI50 [9]
CC1=NN(c2nc(N)nc(CS(C)(=O)=O)n2)C(C)(C)C1,> 100 µM,> 100 µM,> 100 µM,> 100 µM,> 100 µM,> 100 µM,> 100 µM,> 100 µM,> 100 µM,> 100 µM,,,,
O=C1CCCCC/C=C2/CC[C@H](Sc3ccccc3)[C@@H]12,> 100 µM,> 100 µM,> 100 µM,> 100 µM,,> 100 µM,> 100 µM,> 100 µM,> 100 µM,> 100 µM,,,,
CSc1ccc2c(c1)c(CCN)c(C)n2Cc1ccc(Cl)c(Cl)c1,,,,,,3.3 µM,,,2.6 µM,,1.73 µM,1.7 µM,3.15 µM,1.32 µM
NCCCNCCSSCc1ccccc1CSSCCNCCCN,29.8 µM,> 100 µM,> 100 µM,> 100 µM,,> 100 µM,> 100 µM,> 100 µM,70 µM,> 100 µM,,,> 100 µM,
O=C(O)CC(NC(=O)C(F)(F)F)C(=O)NC1Cc2ccccc2OC1=O (stereo not given),,,> 100 µM,,> 100 µM,> 100 µM,> 100 µM,> 100 µM,> 100 µM,> 100 µM,,,> 100 µM,
CSCCC(NC(=O)C(Cc1ccccc1)NC(=O)CNC(=O)CNC(=O)C(N)Cc1ccc(O)cc1)C(=O)O (stereo not given),> 100 µM,> 100 µM,> 100 µM,> 100 µM,,> 100 µM,> 100 µM,> 100 µM,> 100 µM,> 100 µM,,,> 100 µM,
CC(=O)OC1C=CC2CCN3C(=O)c4cc5c(cc4[C@H]1C23)OCO5 (stereo not given in full),> 100 µM,> 100 µM,> 100 µM,> 100 µM,,> 100 µM,> 100 µM,> 100 µM,> 100 µM,> 100 µM,,,> 100 µM,
COCCO,,> 100 µM,> 100 µM,> 100 µM,,> 100 µM,> 100 µM,> 100 µM,> 100 µM,> 100 µM,,,> 100 µM,
COc1cc(N=C(N)N=C(N)N)c2ncccc2c1,,> 100 µM,> 100 µM,> 100 µM,> 100 µM,> 100 µM,> 100 µM,> 100 µM,> 100 µM,> 100 µM,,,> 100 µM,
COc1ccc(C2CCc3nc4nc(N)nc(N)c4cc3C2)cc1 (stereo not given),,> 100 µM,> 100 µM,30 µM,78.2 µM,,> 100 µM,22.5 µM,5.09 µM,> 100 µM,,,43.9 µM,
O=C(N=Nc1ccc([N+](=O)[O-])cc1)NNc1ccc([N+](=O)[O-])cc1,47.1 µM,,,24.4 µM,57.5 µM,44.7 µM,47.2 µM,41.9 µM,79.9 µM,22.2 µM,,,59.2 µM,

# — PubChem BioAssay (NCI)
